# Laboratory results published in ChEMBL document CHEMBL1201862, “PubChem BioAssay data set” (2004).
# Active and inactive are the calls of the source.
# Assays:
# Tumor necrosis factor = Tumor necrosis factor (Homo sapiens, UniProt P01375); experiment: analog potency on TNFa NF-kB signaling – cell-based, revised, SAR follow-up (AID 2337); format: functional
# [1] = molecular target: T1, Nucleotide-binding oligomerization domain-containing protein 1 (Homo sapiens, UniProt Q9Y239); experiment: blockers of NOD1 pathway activity – revised, SAR follow-up (AID 2333); format: functional
# T1 sequence (Q9Y239 whole entry): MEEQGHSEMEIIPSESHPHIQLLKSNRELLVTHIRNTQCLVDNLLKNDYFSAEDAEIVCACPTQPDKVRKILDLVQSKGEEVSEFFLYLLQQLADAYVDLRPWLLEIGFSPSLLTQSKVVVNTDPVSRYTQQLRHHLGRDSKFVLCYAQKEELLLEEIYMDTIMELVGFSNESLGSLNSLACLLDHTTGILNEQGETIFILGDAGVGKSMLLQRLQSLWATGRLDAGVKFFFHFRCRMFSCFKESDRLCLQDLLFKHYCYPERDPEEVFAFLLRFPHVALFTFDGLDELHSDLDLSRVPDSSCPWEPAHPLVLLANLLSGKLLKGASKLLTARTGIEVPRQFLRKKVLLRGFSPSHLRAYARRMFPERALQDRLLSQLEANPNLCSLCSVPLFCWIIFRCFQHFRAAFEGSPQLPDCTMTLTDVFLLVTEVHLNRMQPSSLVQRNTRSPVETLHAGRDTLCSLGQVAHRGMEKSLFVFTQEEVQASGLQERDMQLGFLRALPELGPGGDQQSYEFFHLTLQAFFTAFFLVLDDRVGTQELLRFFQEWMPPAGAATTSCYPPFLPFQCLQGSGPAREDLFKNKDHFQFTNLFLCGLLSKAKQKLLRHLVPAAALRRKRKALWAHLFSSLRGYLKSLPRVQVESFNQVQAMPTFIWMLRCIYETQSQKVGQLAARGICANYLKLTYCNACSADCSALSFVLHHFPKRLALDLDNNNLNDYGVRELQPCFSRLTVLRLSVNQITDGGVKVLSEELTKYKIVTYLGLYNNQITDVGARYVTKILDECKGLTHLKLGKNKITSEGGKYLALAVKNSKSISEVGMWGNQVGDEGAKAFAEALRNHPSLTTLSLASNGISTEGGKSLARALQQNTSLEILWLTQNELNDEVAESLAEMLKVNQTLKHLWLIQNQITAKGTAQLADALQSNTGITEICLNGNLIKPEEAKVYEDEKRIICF
# HEK293 = experiment: cells; details: Homo sapiens;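 also: cells exposed to compound for 14 hours overnight before viability readout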
# [2] = viability of uninfected HEp-2 cells – cell-based, HTS, cytotoxicity control for RSV inhibitor project, dose response (AID 2410); format: functional; details: human respiratory syncytial virus
# Vero = experiment: cells; format: functional, cell-based; details: Chlorocebus sabaeus
# [3] = decrease of insulin promoter-GFP reporter – imaging, high-content screening, mouse beta cells (AID 1628); format: functional; details: MIN6
# [4] = MIN6 cell viability loss – mouse insulinoma, cytotoxicity control, dose response (AID 2122); format: functional;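 also: confirmatory high-throughput counterscreen run to flag cytotoxic compounds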
# Beta-galactosidase = Beta-galactosidase (Escherichia coli, UniProt Q8VNN2); experiment: PubChem AID 485352; format: functional
# Chain of Beta-galactosidase (Q8VNN2 whole entry): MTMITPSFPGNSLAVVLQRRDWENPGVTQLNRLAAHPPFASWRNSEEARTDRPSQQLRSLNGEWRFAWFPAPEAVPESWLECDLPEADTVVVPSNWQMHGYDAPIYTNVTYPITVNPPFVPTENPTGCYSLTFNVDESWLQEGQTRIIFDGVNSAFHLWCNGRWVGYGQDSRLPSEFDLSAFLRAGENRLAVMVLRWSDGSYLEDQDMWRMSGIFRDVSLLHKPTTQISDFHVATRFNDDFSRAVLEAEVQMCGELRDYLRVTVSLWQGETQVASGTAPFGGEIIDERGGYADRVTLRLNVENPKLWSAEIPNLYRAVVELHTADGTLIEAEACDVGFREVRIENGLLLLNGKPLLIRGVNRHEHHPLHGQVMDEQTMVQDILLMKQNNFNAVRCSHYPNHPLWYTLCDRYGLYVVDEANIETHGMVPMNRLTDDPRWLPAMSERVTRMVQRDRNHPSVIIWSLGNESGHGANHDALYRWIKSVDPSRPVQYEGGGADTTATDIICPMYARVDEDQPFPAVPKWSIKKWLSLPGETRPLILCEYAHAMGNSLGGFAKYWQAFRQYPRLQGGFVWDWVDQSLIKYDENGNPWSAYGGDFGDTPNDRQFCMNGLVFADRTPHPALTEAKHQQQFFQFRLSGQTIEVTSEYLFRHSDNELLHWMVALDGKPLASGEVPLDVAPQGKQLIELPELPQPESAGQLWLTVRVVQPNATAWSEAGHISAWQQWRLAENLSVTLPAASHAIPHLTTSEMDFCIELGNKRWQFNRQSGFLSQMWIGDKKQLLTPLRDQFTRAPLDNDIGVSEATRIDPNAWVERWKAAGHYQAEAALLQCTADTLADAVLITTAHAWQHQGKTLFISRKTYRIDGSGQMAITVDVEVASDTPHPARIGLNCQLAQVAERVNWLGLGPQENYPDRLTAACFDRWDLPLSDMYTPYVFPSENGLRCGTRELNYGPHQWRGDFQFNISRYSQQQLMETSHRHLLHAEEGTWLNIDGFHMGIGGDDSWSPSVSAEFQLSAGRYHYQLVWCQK
# [5] = molecular target: T2, Type-1 angiotensin II receptor (Homo sapiens, UniProt P30556); experiment: antagonism of angiotensin II type 1 receptor – cell-based, uHTS hits, selectivity assay for APJ receptor antagonist project, dose response (AID 463214); format: functional;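 also: antagonist potency against angiotensin II stimulated AT1 response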
# T2 sequence (P30556 whole entry): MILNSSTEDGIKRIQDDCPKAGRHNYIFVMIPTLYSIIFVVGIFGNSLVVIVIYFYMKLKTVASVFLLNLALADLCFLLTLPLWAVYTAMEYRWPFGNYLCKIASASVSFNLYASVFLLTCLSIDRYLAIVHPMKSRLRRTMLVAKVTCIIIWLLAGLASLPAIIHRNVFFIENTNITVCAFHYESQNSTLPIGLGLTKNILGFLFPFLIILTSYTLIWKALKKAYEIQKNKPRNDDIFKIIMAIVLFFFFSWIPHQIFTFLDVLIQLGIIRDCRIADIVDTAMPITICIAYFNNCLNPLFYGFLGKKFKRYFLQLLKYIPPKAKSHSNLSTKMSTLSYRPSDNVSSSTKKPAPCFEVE
# Fatty acid synthase [6] = molecular target: T3, Fatty acid synthase (Homo sapiens, UniProt P49327); experiment: inhibition of human FAS-TE enzyme activity – biochemical, endpoint fluorescence intensity, uHTS hits, dose response (AID 624327); format: functional;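 also: fluorescence from hydrolysis of an O-methyl fluorescein acyl ester substrate by the enzyme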
# T3 sequence (P49327 whole entry): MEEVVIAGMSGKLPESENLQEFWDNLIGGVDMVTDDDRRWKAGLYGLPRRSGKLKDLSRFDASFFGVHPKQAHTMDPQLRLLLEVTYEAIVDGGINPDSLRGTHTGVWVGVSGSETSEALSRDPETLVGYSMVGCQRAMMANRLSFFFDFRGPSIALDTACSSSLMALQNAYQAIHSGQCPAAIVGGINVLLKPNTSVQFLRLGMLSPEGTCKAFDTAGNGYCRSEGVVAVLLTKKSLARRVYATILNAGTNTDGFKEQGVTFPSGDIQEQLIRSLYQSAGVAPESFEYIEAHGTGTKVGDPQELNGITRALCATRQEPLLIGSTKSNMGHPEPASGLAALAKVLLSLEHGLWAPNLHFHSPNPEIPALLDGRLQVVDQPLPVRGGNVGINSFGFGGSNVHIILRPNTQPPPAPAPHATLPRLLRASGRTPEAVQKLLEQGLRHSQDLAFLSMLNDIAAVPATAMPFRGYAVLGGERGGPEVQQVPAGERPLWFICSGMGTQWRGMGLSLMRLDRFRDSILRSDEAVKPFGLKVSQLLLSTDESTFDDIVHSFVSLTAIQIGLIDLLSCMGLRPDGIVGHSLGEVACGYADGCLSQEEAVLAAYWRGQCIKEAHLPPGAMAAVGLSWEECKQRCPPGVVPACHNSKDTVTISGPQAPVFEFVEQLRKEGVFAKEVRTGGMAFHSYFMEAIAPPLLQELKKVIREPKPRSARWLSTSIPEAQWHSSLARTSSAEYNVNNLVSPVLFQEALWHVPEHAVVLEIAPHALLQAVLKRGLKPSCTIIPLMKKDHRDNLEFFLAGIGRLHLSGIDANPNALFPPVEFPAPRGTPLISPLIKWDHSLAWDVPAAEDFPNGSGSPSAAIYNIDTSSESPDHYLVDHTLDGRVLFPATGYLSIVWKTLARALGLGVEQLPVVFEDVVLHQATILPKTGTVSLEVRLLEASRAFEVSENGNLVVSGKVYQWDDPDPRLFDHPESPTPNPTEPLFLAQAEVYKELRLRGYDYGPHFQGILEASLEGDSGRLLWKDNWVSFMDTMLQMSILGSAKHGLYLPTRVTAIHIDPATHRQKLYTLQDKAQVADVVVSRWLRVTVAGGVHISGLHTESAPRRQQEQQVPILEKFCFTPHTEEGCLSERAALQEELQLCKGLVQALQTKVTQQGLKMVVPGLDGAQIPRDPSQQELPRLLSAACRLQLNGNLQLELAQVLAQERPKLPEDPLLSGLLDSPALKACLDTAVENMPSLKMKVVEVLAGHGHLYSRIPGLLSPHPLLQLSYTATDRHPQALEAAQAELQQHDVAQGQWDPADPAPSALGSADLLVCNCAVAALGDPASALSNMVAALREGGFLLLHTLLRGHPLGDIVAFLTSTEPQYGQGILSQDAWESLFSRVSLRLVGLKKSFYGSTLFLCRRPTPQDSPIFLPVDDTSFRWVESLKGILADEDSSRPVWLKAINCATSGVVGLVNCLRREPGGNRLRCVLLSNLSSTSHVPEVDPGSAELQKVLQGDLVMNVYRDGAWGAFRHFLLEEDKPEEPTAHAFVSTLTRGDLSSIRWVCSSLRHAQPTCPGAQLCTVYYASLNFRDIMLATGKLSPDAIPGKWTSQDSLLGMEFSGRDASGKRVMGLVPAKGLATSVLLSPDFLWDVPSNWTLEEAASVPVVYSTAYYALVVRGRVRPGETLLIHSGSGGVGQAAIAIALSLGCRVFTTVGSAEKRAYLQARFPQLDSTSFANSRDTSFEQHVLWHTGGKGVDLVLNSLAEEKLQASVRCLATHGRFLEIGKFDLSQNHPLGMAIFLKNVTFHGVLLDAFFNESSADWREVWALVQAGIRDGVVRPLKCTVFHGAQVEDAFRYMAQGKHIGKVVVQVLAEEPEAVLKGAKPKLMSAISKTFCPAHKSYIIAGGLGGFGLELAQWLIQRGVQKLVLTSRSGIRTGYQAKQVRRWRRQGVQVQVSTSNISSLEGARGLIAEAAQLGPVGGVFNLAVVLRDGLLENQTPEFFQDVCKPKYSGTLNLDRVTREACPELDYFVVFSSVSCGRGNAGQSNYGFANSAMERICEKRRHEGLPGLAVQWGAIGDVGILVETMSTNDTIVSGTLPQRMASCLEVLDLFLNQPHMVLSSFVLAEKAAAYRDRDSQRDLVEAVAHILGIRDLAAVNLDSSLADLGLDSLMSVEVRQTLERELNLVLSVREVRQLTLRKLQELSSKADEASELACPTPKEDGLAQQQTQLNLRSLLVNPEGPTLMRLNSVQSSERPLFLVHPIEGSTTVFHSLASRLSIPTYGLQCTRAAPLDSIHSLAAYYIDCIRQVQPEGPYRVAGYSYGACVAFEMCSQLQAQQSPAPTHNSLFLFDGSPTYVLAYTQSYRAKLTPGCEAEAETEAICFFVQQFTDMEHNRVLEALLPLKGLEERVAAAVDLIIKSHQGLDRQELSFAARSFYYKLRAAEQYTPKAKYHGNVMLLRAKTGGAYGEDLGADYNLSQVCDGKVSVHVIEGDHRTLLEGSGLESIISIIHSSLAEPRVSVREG
# Fatty acid synthase [7] = molecular target: T3, Fatty acid synthase; experiment: inhibition of human FAS-TE enzyme activity – biochemical, kinetic fluorescence intensity, dose response (AID 624326); format: functional;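 also: rate of fluorescence rise from hydrolysis of a fluorogenic O-methyl fluorescein ester substrate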
# [8] = molecular target: T4, Sentrin-specific protease 8 (Homo sapiens, UniProt Q96LD8); experiment: inhibition of human SENP8 cleavage activity – biochemical, luminescence, SAR follow-up (AID 504501); format: functional
# T4 sequence (Q96LD8 whole entry): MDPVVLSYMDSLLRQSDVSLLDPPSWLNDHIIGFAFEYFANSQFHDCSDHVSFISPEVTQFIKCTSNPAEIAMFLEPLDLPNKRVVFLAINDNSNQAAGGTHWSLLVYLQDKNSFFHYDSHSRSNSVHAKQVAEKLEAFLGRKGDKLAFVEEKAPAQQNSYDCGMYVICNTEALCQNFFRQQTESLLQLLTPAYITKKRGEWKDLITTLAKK
# Caspase-3 [9] = molecular target: T5, Caspase-3 (Homo sapiens, UniProt P42574); experiment: inhibition of recombinant caspase-3 activity – biochemical, luminescence, set 2, selectivity assay for SENP protease inhibitor project, SAR follow-up (AID 588599); format: functional
# T5 sequence (P42574 whole entry): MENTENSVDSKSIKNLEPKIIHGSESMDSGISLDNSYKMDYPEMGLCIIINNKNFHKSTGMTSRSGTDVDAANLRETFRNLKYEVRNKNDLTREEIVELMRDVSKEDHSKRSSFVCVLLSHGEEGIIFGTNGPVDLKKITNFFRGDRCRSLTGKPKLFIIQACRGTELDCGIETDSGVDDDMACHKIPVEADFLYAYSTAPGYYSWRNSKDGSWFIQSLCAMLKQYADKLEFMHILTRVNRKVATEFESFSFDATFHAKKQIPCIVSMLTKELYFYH
# [10] = molecular target: T4, Sentrin-specific protease 8; experiment: inhibition of sentrin protease 8 – biochemical, luminescence, set 2, SAR follow-up (AID 588601); format: functional
# Caspase-3 [11] = molecular target: T5, Caspase-3; experiment: SAR Analysis of small molecule inhibitors of Sentrin-specific proteases (SENPs) using a Caspase-3 Selectivity assay. [Related pubchem assays (depositor defined):AID2540, AID2599, AID434973, AID489001]; format: functional
# [12] = molecular target: T6, Sentrin-specific protease 7 (Homo sapiens, UniProt Q9BQF6); experiment: inhibition of human SENP7 cleavage activity – biochemical, luminescence, set 2, SAR follow-up (AID 588600); format: functional
# T6 sequence (Q9BQF6 whole entry): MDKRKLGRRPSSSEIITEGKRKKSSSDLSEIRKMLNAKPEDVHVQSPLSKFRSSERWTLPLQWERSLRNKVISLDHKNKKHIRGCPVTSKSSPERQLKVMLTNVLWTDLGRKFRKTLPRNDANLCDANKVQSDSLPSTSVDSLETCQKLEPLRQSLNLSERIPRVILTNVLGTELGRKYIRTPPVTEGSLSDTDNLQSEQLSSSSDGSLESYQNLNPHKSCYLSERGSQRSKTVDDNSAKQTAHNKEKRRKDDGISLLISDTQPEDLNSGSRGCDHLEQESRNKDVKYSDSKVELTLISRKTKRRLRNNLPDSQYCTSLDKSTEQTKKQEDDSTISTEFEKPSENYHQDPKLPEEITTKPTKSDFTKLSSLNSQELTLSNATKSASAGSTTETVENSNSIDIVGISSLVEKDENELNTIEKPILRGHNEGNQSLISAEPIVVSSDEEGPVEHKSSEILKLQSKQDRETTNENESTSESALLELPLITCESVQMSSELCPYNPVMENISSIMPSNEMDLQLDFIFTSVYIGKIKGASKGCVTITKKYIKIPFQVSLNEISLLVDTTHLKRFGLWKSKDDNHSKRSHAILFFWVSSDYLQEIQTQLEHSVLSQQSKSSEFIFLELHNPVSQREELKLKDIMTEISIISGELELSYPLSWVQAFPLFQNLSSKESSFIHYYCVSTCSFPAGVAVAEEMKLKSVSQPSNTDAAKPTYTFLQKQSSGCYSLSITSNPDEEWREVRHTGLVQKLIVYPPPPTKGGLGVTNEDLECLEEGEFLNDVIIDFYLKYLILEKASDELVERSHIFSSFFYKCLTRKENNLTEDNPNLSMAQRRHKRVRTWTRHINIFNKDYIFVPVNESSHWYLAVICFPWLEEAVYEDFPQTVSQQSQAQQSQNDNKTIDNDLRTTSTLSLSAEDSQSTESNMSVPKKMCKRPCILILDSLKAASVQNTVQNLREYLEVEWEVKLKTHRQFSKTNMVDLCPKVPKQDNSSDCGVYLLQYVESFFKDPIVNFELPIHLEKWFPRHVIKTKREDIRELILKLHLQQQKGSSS
# [13] = molecular target: T7, Sentrin-specific protease 6 (Homo sapiens, UniProt Q9GZR1); experiment: SAR Analysis of small molecule inhibitors of Sentrin-specific protease 6 (SENP6) using a Luminescent assay. [Related pubchem assays (depositor defined):AID2582, AID2599]; format: functional
# T7 sequence (Q9GZR1 whole entry): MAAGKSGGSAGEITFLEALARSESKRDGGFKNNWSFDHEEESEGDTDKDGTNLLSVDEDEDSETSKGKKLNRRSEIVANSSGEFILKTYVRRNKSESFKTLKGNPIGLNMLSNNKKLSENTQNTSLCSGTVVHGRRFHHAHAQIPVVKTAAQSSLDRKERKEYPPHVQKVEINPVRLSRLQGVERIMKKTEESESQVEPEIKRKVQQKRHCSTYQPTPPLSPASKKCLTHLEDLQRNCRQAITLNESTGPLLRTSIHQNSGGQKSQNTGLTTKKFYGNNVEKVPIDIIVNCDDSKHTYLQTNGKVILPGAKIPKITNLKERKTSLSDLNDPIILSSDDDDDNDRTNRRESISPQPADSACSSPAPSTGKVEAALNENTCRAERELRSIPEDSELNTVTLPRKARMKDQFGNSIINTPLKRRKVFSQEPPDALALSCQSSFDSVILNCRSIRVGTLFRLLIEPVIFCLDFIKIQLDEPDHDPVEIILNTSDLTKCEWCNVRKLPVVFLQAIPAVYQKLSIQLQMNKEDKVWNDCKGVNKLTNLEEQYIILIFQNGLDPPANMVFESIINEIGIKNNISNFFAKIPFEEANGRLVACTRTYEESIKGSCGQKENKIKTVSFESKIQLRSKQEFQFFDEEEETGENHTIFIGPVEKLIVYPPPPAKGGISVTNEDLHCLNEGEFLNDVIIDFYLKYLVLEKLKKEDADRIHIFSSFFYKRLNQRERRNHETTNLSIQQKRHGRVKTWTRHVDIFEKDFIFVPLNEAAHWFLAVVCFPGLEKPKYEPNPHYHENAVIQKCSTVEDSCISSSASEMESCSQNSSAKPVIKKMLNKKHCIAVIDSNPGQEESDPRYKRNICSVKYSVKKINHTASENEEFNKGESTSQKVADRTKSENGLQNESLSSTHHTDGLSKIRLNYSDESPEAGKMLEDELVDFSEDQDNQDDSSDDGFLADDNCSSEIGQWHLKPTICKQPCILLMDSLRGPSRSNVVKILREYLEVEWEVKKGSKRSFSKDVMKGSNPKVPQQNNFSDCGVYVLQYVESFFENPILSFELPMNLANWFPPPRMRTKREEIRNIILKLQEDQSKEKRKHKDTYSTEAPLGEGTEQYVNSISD
# [14] = molecular target: T6, Sentrin-specific protease 7; experiment: inhibition of human SENP7 cleavage activity – biochemical, luminescence, SAR follow-up (AID 504497); format: functional
# Chain of Tumor necrosis factor (P01375 whole entry, the tested form may be a part): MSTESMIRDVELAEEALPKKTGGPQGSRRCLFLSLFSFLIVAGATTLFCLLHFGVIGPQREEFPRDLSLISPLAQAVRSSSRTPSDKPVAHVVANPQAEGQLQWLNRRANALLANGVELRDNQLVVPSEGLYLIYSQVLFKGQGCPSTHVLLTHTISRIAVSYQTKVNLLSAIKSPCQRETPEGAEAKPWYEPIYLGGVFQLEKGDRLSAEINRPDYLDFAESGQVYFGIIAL
compound,measurement,setting,value
CCCOc1ccc(C=NN=C(S)Nc2ccccc2[N+](=O)[O-])c(O)c1,IC50,Tumor necrosis factor,0.88 µM (active)
same,IC50,[1],7.73 µM (active)
same,IC50,HEK293,> 20 µM (inactive)
Nc1ccc(C(=O)OCCCc2nc3cc4ccccc4cc3[nH]2)cc1,CC50,[2],46 µM (active)
same,IC50,Vero,> 25 µM (active)
Brc1ccc2[nH]c3c(c2c1)CCC3,IC50,Vero,> 25 µM (active)
c1ccc(N2CCN(Cc3ccnc4ccccc34)CC2)cc1,IC50,[3],3.42 µM (active)
same,IC50,[4],2.84 µM (active)
O=C(CCc1ccccc1)OCC(=O)c1cccc([N+](=O)[O-])c1,EC50,Beta-galactosidase,> 40 µM (inactive)
same,IC50,[5],19.2 µM (active)
same,IC50,Fatty acid synthase [6],11.3 µM (active)
same,IC50,Fatty acid synthase [7],9.4 µM (active)
C(#Cc1ccccc1)C[N+]1(CC#Cc2cccc3ccccc23)CCOCC1,IC50,[3],2.29 µM (active)
same,IC50,[4],2.19 µM (active)
O=C(COC(=O)c1cc2ccccc2oc1=O)c1cccc([N+](=O)[O-])c1,EC50,Beta-galactosidase,> 40 µM (inactive)
same,IC50,[5],> 40 µM (not active)
COc1cccc(N2CC(C)Cn3c2nc2c3c(=O)[nH]c(=O)n2C)c1 (stereo not given),EC50,Beta-galactosidase,> 40 µM (inactive)
same,IC50,[5],> 40 µM (not active)
O=C(Nc1nc2ccc(Cl)cc2s1)c1cccs1,IC50,[8],1.5 µM (active)
same,IC50,Caspase-3 [9],2.07 µM (active)
same,IC50,[10],1.25 µM (active)
same,IC50,Caspase-3 [11],2 µM (active)
same,IC50,[12],1.39 µM (active)
same,IC50,[13],1.3 µM (active)
same,IC50,[14],1.2 µM (active)
